{
  "source": "patent US4513001A",
  "about": "“β-Adrenergic 1-[1-benzimidazolyl]-N-[2-(4-hydroxy-3-methoxy-phenyl)-2-hydroxy-ethyl]- 3-amino butane and salts and hydrates thereof” (priority 1982, dated 1985)",
  "key": {"[1]": {"test_system": "histamine bronchospasm", "assay": "Bronchodilator activity in vivo, anesthetized guinea pig, intraduodenal (inhibition of histamine bronchospasm, KONZETT)", "procedure": "1.2.1 In the anesthesized guinea pig (method of KONZETT. Arch. Exp. Pathol. Pharmakol. 1940 195 71-74)\nA bronchospasm was caused by intravenous histamine injection. The bronchodilator activity was shown by partial or total inhibition of this spasm.\nThe product studied was administered intravenously or intraduodenaly and histamine injected then at different times to follow the delay in appearance and the duration of the inhibiting effect of the treatment.\nThe results below are the averages of the values obtained in 10 animals."}, "[2]": {"test_system": "histamine bronchospasm", "assay": "Bronchodilator activity in vivo, anesthetized dog, intraduodenal (intratracheal pressure, histamine bronchospasm)", "procedure": "1.2.2. In the anesthesized dog (recording of the intratracheal pressure)\nA bronchospasm was caused by intravenous injection and histamine. The bronchodilator activity was shown by partial or total inhibition of this spasm.\nThe products studied were administered intraduodenally and the histamine injected then at various times to follow the effect of the treatment.\nThe results borne in the table below are the averages of the values obtained in 3 animals for each product."}, "[3]": {"test_system": "rat uterus preparation", "assay": "Uterus relaxing activity in vitro", "details": "for EC50: Rattus norvegicus, 7 preparations, read-out: CE50 (effective concentration 50, inhibiting by 50% the control contraction)", "description": "This activity was investigated on a rat uterus preparation, put into estrus by cutaneous injection of oestradiol benzoate. The uterine horns were kept alive in a RINGER-LOCKE solution, modified by GADDUM and VOGT.\nTheir activity is expressed by the value of the molar CE50 (effective concentration 50, inhibiting by 50% the control contraction induced by the contracting agent).\nEach CE50 indicated below was obtained from the results of 7 preparations."}, "[4]": {"test_system": "isolated right atrium preparation of the guinea pig", "assay": "Activity on the heart rate in vitro, isolated right atrium", "details": "for Heart rate, maximum: basal 209 (Compound A), 202 (Salbutamol); for Tachycardiac activity in vitro (comparison with Salbutamol): sulphate, dihydrate", "procedure": "This action was studied on an isolated right atrium preparation of the guinea pig kept alive in a RINGER solution. The effect of cumulative doses on the heart rate was recorded. The results below are the averages of 6 preparations of the compound A, of 4 for Salbutamol"}, "[5]": {"test_system": "heart rate and mean aortic pressure", "assay": "Heart rate and mean aortic pressure of the anesthetised dog, intraduodenal", "type": "in vivo", "details": "for Heart rate, maximum cumulative effect / Average aortic pressure, maximum cumulative effect: intraduodenal", "procedure": "3.1.1. Activity on the heart rate and on the mean aortic pressure of the anesthetisied dog\nThe activity of the compound A and of Salbutamol was studied on 2 batches of 3 dogs per product: one in spontaneous respiration, the other in artificial respiration; the two substances were administered intraduodenally at 3 doses: 0.008-0.025 and 0.08 mg/kg."}, "[6]": {"test_system": "guinea pig trachea", "assay": "β-stimulant specificity: guinea pig trachea before and after propranolol", "details": "for EC50: Cavia porcellus, 6 preparations", "description": "respiratory (guinea pig trachea, in vitro)\ncardiovascular (heart rate of the dog, in vivo) by the antagonistic effect of a β-blocking product."}},
  "note": "“Also recorded” adds a separate entry of the source. Like-named read-outs stand apart in the source and are kept apart here.",
  "data": [
    {"smiles": "COc1cc(C(O)CNC(C)CCn2cnc3ccccc32)ccc1O", "note": "(stereo not drawn) [Compound A, 1-[1-benzimidazolyl]-N-[2-(4-hydroxy-3-methoxy-phenyl)2-hydroxy-ethyl]3-amino butane basic sulphate, dihydrate]", "values": [
      {"measurement": "% inhibition in time", "setting": "[1]; 0.8 mg base/kg, 90 min", "result": 21, "unit": "%"},
      {"measurement": "% inhibition in time", "setting": "[1]; 2.5 mg base/kg, 1 min", "result": 20, "unit": "%"},
      {"measurement": "% inhibition in time", "setting": "[1]; 2.5 mg base/kg, 5 min", "result": 73, "unit": "%"},
      {"measurement": "% inhibition in time", "setting": "[1]; 2.5 mg base/kg, 15 min", "result": 65, "unit": "%"},
      {"measurement": "% inhibition in time", "setting": "[1]; 2.5 mg base/kg, 30 min", "result": 53, "unit": "%"},
      {"measurement": "% inhibition in time", "setting": "[1]; 2.5 mg base/kg, 45 min", "result": 44, "unit": "%"},
      {"measurement": "% inhibition in time", "setting": "[1]; 2.5 mg base/kg, 60 min", "result": 39, "unit": "%"},
      {"measurement": "% inhibition in time", "setting": "[1]; 2.5 mg base/kg, 90 min", "result": 34, "unit": "%"},
      {"measurement": "% inhibition in time", "setting": "[1]; 2.5 mg base/kg, 120 min", "result": 30, "unit": "%"},
      {"measurement": "% inhibition in time", "setting": "[1]; 8 mg base/kg, 1 min", "result": 51, "unit": "%"},
      {"measurement": "% inhibition in time", "setting": "[1]; 8 mg base/kg, 5 min", "result": 82, "unit": "%"},
      {"measurement": "% inhibition in time", "setting": "[1]; 8 mg base/kg, 15 min", "result": 82, "unit": "%"},
      {"measurement": "% inhibition in time", "setting": "[1]; 8 mg base/kg, 30 min", "result": 71, "unit": "%"},
      {"measurement": "% inhibition in time", "setting": "[1]; 8 mg base/kg, 45 min", "result": 67, "unit": "%"},
      {"measurement": "% inhibition in time", "setting": "[1]; 8 mg base/kg, 60 min", "result": 65, "unit": "%"},
      {"measurement": "% inhibition in time", "setting": "[1]; 8 mg base/kg, 90 min", "result": 59, "unit": "%"},
      {"measurement": "% inhibition in time", "setting": "[1]; 8 mg base/kg, 120 min (n = 9 compound A, n = 8 Salbutamol)", "result": 55, "unit": "%"},
      {"measurement": "minimal effective dose", "setting": "[1]; Cavia porcellus, read-out: Threshold active dose", "result": 0.25, "unit": "mg/kg"},
      {"measurement": "Bronchodilator activity (comparison, in words)", "setting": "[1]; sulphate, dihydrate", "result": "more lasting at 8 mg/kg; also recorded: more active than Salbutamol"},
      {"measurement": "% inhibition in time", "setting": "[2]; 0.025 mg base/kg, 5 min", "result": 48, "unit": "%"},
      {"measurement": "% inhibition in time", "setting": "[2]; 0.025 mg base/kg, 20 min", "result": 60, "unit": "%"},
      {"measurement": "% inhibition in time", "setting": "[2]; 0.025 mg base/kg, 35 min", "result": 67, "unit": "%"},
      {"measurement": "% inhibition in time", "setting": "[2]; 0.025 mg base/kg, 60 min", "result": 63, "unit": "%"},
      {"measurement": "% inhibition in time", "setting": "[2]; 0.025 mg base/kg, 90 min", "result": 62, "unit": "%"},
      {"measurement": "% inhibition in time", "setting": "[2]; 0.08 mg base/kg, 5 min", "result": 70, "unit": "%"},
      {"measurement": "% inhibition in time", "setting": "[2]; 0.08 mg base/kg, 20 min", "result": 78, "unit": "%"},
      {"measurement": "% inhibition in time", "setting": "[2]; 0.08 mg base/kg, 35 min", "result": 76, "unit": "%"},
      {"measurement": "% inhibition in time", "setting": "[2]; 0.08 mg base/kg, 60 min", "result": 70, "unit": "%"},
      {"measurement": "% inhibition in time", "setting": "[2]; 0.08 mg base/kg, 90 min", "result": 60, "unit": "%"},
      {"measurement": "Bronchodilator activity (comparison, in words)", "setting": "[2]; sulphate, dihydrate", "result": "acted more rapidly (inhibition already strong in 5 minutes); also recorded: activity was higher than or equal to that of Salbutamol, is characterised by its great speed of action"},
      {"measurement": "EC50", "setting": "[3]; contracting agent acetylcholine", "result": 0.67, "unit": "nM"},
      {"measurement": "EC50", "setting": "[3]; contracting agent serotonine", "result": 2.4, "unit": "nM"},
      {"measurement": "Activity on the uterus (comparison with Salbutamol)", "setting": "[3]; in vitro, in words", "result": "of the same order of that of Salbutamol"},
      {"measurement": "Heart rate, increase", "setting": "[4]; 1 × 10^-5 mol (maxi for Salbutamol)", "result": "+47 beats per min."},
      {"measurement": "Heart rate, maximum", "setting": "[4]; 1 × 10^-5 mol", "result": 256, "unit": "beats per min."},
      {"measurement": "Heart rate, increase", "setting": "[4]; 1 × 10^-6 mol (maxi for Compound A)", "result": "+49 beats per min."},
      {"measurement": "Heart rate, maximum", "setting": "[4]; 1 × 10^-6 mol", "result": 258, "unit": "beats per min."},
      {"measurement": "Heart rate, increase", "setting": "[4]; 1 × 10^-7 mol", "result": "+40 beats per min."},
      {"measurement": "Heart rate, maximum", "setting": "[4]; 1 × 10^-7 mol", "result": 249, "unit": "beats per min."},
      {"measurement": "Emax", "setting": "[4]; Cavia porcellus, same preparation, at the start of the test, read-out: Maximum as % of the maximum tachycardia obtained with isoprenaline", "result": "< 50", "unit": "%"},
      {"measurement": "CE50 and pD2 on heart rate (not calculable)", "setting": "[4]; in vitro, in words", "result": "this low activity prevents calculation of a CE50 and a pD2"},
      {"measurement": "Tachycardiac activity in vitro (comparison with Salbutamol)", "setting": "[4]; in words, listed as Compound a", "result": "only a partial effect, very much less than that of Salbutamol"},
      {"measurement": "Tachycardiac activity in vitro (comparison with Salbutamol)", "setting": "[4]; in words", "result": "increases the rate but the maximum effect is very much less than that of Salbutamol"},
      {"measurement": "Tachycardiac and hypotensive effect (comparison with Salbutamol)", "setting": "[5]; anesthetised dog, in words", "result": "a little less tachycardiac and hypotensive than Salbutamol"},
      {"measurement": "Heart rate, maximum cumulative effect", "setting": "[5]; artificial respiration, 10 min after 0.08 mg/kg", "result": "+20 cpm"},
      {"measurement": "Average aortic pressure, maximum cumulative effect", "setting": "[5]; artificial respiration, 75 min after 0.08 mg/kg", "result": -26, "unit": "mmHg"},
      {"measurement": "Heart rate, maximum cumulative effect", "setting": "[5]; spontaneous respiration, 15 min after 0.08 mg/kg", "result": "+17 cpm"},
      {"measurement": "Average aortic pressure, maximum cumulative effect", "setting": "[5]; spontaneous respiration, 20 min after 0.08 mg/kg", "result": -15, "unit": "mmHg"},
      {"measurement": "EC50", "setting": "[6]; read-out: CD50 before propranolol", "result": 71, "unit": "nM"},
      {"measurement": "EC50", "setting": "[6]; propranolol 1.7×10^-8 mol, read-out: CD50 after propranolol", "result": 250, "unit": "nM"},
      {"measurement": "Ratio of CD50", "setting": "[6]; after / before propranolol", "result": 3.5}
    ]}
  ]
}
